# Earlier results in patent US20050222163A1, “Combinations of signal transduction inhibitors” (PFIZER INC, priority 2004, published 2005).
# Tests used:
# [1] = tested on: phosphorylated ERK1 and ERK2; settings: background statement, result in words
# [2] = comparison with predecessor CI-1040, result in words
Structure (SMILES),levels of phosphorylated ERK1 and ERK2 [1],metabolic stability relative to CI-1040 [2]
"O=C(NOC[C@H](O)CO)c1ccc(F)c(F)c1Nc1ccc(I)cc1F [N-[(R)-2,3-Dihydroxy-propoxy]-3,4-difluoro-2-(2-fluoro-4-iodo-phenylamino)-benzamide]",significantly inhibits the phosphorylation of ERK1 and ERK2,metabolically more stable
"O=C(NOCC1CC1)c1ccc(F)c(F)c1Nc1ccc(I)cc1Cl [CI-1040, 2-(2-Chloro-4-iodo-phenylamino)-N-cyclopropylmethoxy-3,4-difluoro-benzamide, reference compound]",significant decrease,–
